Experimental data taken from patent publication US20160159861A1, “APJ Receptor Compounds” (priority 2013, published 2016).
Read-outs that look alike come from different tables or passages of the source. Peptide text beside a SMILES is read from it.

How the values were obtained:
Assay type in all cases: cell-based
[1] = target: T1, human APJ receptor (hAPJ) (Homo sapiens, UniProt P35414); assay: HTRF cAMP assay: inhibition of NKH477-stimulated cAMP in HEK cells stably expressing hAPJ; settings: for Emax: HEK293, read-out: % IA, bound stated; for % IA (cAMP inhibition, hAPJ HEK): intrinsic activity; for Ranking: composite class of EC50 (hAPJ), % IA and % histamine or formal (+) charge; for inhibition of NKH477-stimulated increase in cAMP, dose dependent: concentration response curves, FIGS. 1 and 2, HEK cells stably expressing APJ
T1 construct: expressed in transfected cells
T1 sequence (P35414 1-380): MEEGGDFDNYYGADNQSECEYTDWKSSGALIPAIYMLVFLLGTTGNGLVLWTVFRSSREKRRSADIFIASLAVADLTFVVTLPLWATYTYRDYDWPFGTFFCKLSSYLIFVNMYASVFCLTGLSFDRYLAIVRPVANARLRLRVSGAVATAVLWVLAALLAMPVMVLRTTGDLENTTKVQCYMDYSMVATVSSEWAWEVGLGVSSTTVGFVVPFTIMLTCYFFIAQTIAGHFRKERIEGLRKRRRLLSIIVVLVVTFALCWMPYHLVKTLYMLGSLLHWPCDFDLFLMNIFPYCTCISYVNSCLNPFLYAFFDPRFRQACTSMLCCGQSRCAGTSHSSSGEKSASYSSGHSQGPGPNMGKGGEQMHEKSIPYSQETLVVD
Procedure, shortened: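 HEK cells stably expressing hAPJ, induced with 1 nG/mL doxycycline and seeded overnight at 40 k/well. cAMP read by HTRF competitive immunoassay using cryptate-labeled anti-cAMP antibody and d2-labeled cAMP.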

rat peritoneal cells = assay: Ex vivo histamine release assay in rat peritoneal cells (vs. Compound 48/80)
Procedure, shortened: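 Resident peritoneal cells were lavaged from male Sprague Dawley rats and kept in HBSS/20 mM HEPES/0.2% BSA at 25,000 cells/well. They were exposed for 30 min at room temperature to compound at 3 points (100, 10, 1 μM DMSO stocks, 1% DMSO final). Released histamine was measured by HTRF and normalised to total histamine after Triton lysis. Compound 48/80 was the reference.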

APJ receptor [2] = target: T2, APJ receptor (Homo sapiens, UniProt P35414); assay: DiscoveRx PathHunter β-arrestin recruitment assay; settings: for β-arrestin recruitment: dose dependent chemiluminescence, FIGS. 3A-3B; for Emax: read-out: β-arrestin Signaling Max Response
T2 sequence (P35414 1-380): T1 sequence (P35414 1-380)
Source text: Activation of the β-Arrestin signaling pathway was monitored using the commercially available DiscoveRx PathHunter® assay. This assay employs a homogenous, non-imaging assay format called Enzyme Fragment Complementation (EFC) using β-galactosidase (β-Gal) as the functional reporter. […] EA is fused to β-Arrestin and ED is fused to the GPCR of interest. When the GPCR is activated and β-Arrestin is recruited to the receptor, ED and EA complementation occurs, restoring βGal activity which is measured using chemiluminescent PathHunter® Detection Reagent.

CXCR4 receptor = CXCR4 receptor (Homo sapiens, UniProt P61073); assay: Activity at CXCR4 receptor (selectivity, Gi-coupled GPCR); settings: FIGS. 6A-6C, selectivity vs. hAPJ
CXCR4 receptor, sequence (P61073 whole entry): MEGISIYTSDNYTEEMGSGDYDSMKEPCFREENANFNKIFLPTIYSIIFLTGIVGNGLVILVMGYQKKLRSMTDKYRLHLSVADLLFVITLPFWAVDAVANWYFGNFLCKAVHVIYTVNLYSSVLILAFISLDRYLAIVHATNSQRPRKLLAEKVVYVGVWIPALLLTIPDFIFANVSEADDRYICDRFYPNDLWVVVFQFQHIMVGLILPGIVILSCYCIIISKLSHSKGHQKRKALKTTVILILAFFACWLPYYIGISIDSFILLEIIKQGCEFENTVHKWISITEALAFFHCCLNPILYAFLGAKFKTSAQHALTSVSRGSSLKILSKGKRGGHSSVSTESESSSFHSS

APJ receptor [3] = target: T2, APJ receptor; assay: Cellul'erk ERK phosphorylation assay in APJ-TREX cells; parameters: expressed in transfected cells; host or cells: Human TRex (APJ-TREX) cells, doxycycline-inducible expression; settings: relative to max pyr-apelin-13 activity at 100 nM; 3 or 0.3 μM compound, 5 minutes
Experimental: Experiments were performed to test activation of the ERK and p38 pathways using the Cellul'erk and the Phospho-p38 MAPK (Thr180/Tyr182) assay kits (Cisbio). APJ-TREX cells were optimized for signaling (pre-serum starved overnight with low FBS serum (2% FBS media) with 1 ng/ml doxycyclin (for induction of APJ receptor expression), 50,000 cells, 5 minutes agonist activation for ERK activity). Cells were pretreated with 3 or 0.3 μM pepducin compound for 5 minutes and the reaction was stopped by lysis buffer. Lysates are then transferred to the assay plate for the detection of phosphorylated ERK or p38 by HTRF reagents.

[4] = EC50 (cAMP inhibition, hAPJ HEK), Table 6, hAPJ HEK cells, NKH477-stimulated cAMP
[5] = EC50 (hAPJ), inhibition of cAMP production, bound stated, HTRF cAMP Assay, per data of Table 6
[6] = HTRF cAMP Assay, per data of Table 6
[7] = histamine release from rat peritoneal cells relative to Compound 48/80
[8] = HTRF cAMP Assay, per data of Table 6, read-out: EC50 (hAPJ), inhibition of cAMP production, bound stated
[9] = Table 6, hAPJ HEK cells, NKH477-stimulated cAMP, read-out: EC50 (cAMP inhibition, hAPJ HEK)

Compound	Emax [1, 6] [%]	% IA (cAMP inhibition, hAPJ HEK) ([1]; Table 6, hAPJ HEK cells) [%]	EC50 [1, 8] [nM]	EC50 [1, 9] [nM]	inhibition of NKH477-stimulated increase in cAMP, dose dependent [1]	activity at the CXCR4 receptor (CXCR4 receptor)	Average % Activity (ERK agonist activity) (APJ receptor [3]) [%]	Histamine (% vs. 48/80) (rat peritoneal cells) [%]	EC50 (APJ receptor [2]; PathHunter chemiluminescence, read-out: β-arrestin Signaling EC50) [nM]	EC50 [1, 4] [nM]	EC50 [1, 5] [nM]	Ranking [1]	Histamine (% vs. 48/80) (rat peritoneal cells; [7]) [%]	EC50 (APJ receptor [2]) [nM]	β-arrestin recruitment (APJ receptor [2])	Emax (APJ receptor [2]) [%]
CCCCCCCCCCCCCCCC(=O)N1CCC[C@H]1C(=O)N[C@H](C(=O)N[C@H](C(=O)N[C@@H](Cc1ccccc1)C(=O)N[C@@H](CCCNC(=N)N)C(=O)N[C@@H](CO)C(=O)N1CCC[C@H]1C(=O)N[C@@H](CO)C(=O)N[C@@H](CCC(=O)O)C(=O)N[C@H](CCCCN)C(=O)N[C@@H](CCCNC(=N)N)C(=O)N[C@@H](CCCNC(=N)N)C(=O)N[C@@H](CO)C(=O)N[C@@H](C)C(=O)N[C@@H](CC(=O)O)C(=O)N[C@H](C(=O)N[C@@H](Cc1ccccc1)C(=O)N[C@H](C(N)=O)[C@@H](C)CC)[C@@H](C)CC)C(C)C)[C@@H](C)O [Compound 3] (HELM PEPTIDE1{[CCCCCCCCCCCCCCCC(=O)[*:2]].P.T.V.F.R.S.P.S.E.[dK].R.R.S.A.D.I.F.I.[am]}$$$$V2.0)	≥ 80	90								13	≤ 25	**** (EC50≦25 nM (hAPJ), % IA≧80% and either % histamine>35% or formal (+) charge>1)	64	8.2	weakly engaged	11
CCCCCCCCCCCCCCCC(=O)N[C@H](C(=O)N[C@H](C(=O)N[C@@H](Cc1ccccc1)C(=O)N[C@@H](CCCNC(=N)N)C(=O)N[C@@H](CO)C(=O)N[C@@H](CO)C(=O)N1CCC[C@H]1C(=O)N[C@@H](CCC(=O)O)C(=O)N[C@H](CCCCN)C(=O)N[C@@H](CCCNC(=N)N)C(=O)N[C@@H](CCCNC(=N)N)C(=O)N[C@@H](CO)C(=O)N[C@@H](C)C(=O)N[C@@H](CC(=O)O)C(=O)N[C@H](C(=O)N[C@@H](Cc1ccccc1)C(=O)N[C@H](C(N)=O)[C@@H](C)CC)[C@@H](C)CC)C(C)C)[C@@H](C)O [Compound 25] (HELM PEPTIDE1{[CCCCCCCCCCCCCCCC(=O)[*:2]].T.V.F.R.S.S.P.E.[dK].R.R.S.A.D.I.F.I.[am]}$$$$V2.0)	≥ 80	138			inhibited		25.5			15	≤ 25	**** (EC50≦25 nM (hAPJ), % IA≧80% and either % histamine>35% or formal (+) charge>1)	51	3.1	weakly engaged	12.6
CCCCCCCCCCCCCCCC(=O)N[C@H](C(=O)N[C@H](C(=O)N[C@@H](Cc1ccccc1)C(=O)N[C@@H](CCCNC(=N)N)C(=O)N[C@@H](CO)C(=O)N[C@@H](CO)C(=O)N[C@@H](CCC(=O)O)C(=O)N1CCC[C@H]1C(=O)N[C@H](CCCCN)C(=O)N[C@@H](CCCNC(=N)N)C(=O)N[C@@H](CCCNC(=N)N)C(=O)N[C@@H](CO)C(=O)N[C@@H](C)C(=O)N[C@@H](CC(=O)O)C(=O)N[C@H](C(=O)N[C@@H](Cc1ccccc1)C(=O)N[C@H](C(N)=O)[C@@H](C)CC)[C@@H](C)CC)C(C)C)[C@@H](C)O [Compound 27] (HELM PEPTIDE1{[CCCCCCCCCCCCCCCC(=O)[*:2]].T.V.F.R.S.S.E.P.[dK].R.R.S.A.D.I.F.I.[am]}$$$$V2.0)	≥ 80	105			inhibited					7	≤ 25	**** (EC50≦25 nM (hAPJ), % IA≧80% and either % histamine>35% or formal (+) charge>1)	67	8.1	weakly engaged	23.7

The next lines start with results.

Emax [1, 6] [%]	% IA (cAMP inhibition, hAPJ HEK) ([1]; Table 6, hAPJ HEK cells) [%]	EC50 [1, 8] [nM]	EC50 [1, 9] [nM]	inhibition of NKH477-stimulated increase in cAMP, dose dependent [1]	activity at the CXCR4 receptor (CXCR4 receptor)	Average % Activity (ERK agonist activity) (APJ receptor [3]) [%]	Histamine (% vs. 48/80) (rat peritoneal cells) [%]	EC50 (APJ receptor [2]; PathHunter chemiluminescence, read-out: β-arrestin Signaling EC50) [nM]	Compound	EC50 [1, 4] [nM]	EC50 [1, 5] [nM]	Ranking [1]	Histamine (% vs. 48/80) (rat peritoneal cells; [7]) [%]	EC50 (APJ receptor [2]) [nM]	β-arrestin recruitment (APJ receptor [2])	Emax (APJ receptor [2]) [%]
≥ 80	87	≤ 25	8	inhibited	lack of dose-responsive activity	58.2			CCCCCCCCCCCCCCCC(=O)N[C@H](C(=O)N[C@H](C(=O)N[C@@H](Cc1ccccc1)C(=O)N[C@@H](CCCNC(=N)N)C(=O)N[C@@H](CO)C(=O)N[C@@H](CCC(=O)O)C(=O)N[C@H](CCCCN)C(=O)N[C@@H](CCCNC(=N)N)C(=O)N[C@@H](CCCNC(=N)N)C(=O)N[C@@H](CO)C(=O)N[C@@H](C)C(=O)N[C@@H](CC(=O)O)C(=O)N[C@@H](CCC(N)=O)C(=O)N[C@@H](Cc1ccccc1)C(=O)N[C@H](C(N)=O)[C@@H](C)CC)C(C)C)[C@@H](C)O [Compound 14] (HELM PEPTIDE1{[CCCCCCCCCCCCCCCC(=O)[*:2]].T.V.F.R.S.E.[dK].R.R.S.A.D.Q.F.I.[am]}$$$$V2.0)			**** (EC50≦25 nM (hAPJ), % IA≧80% and either % histamine>35% or formal (+) charge>1)				
≥ 80	117	≤ 25	15	inhibited	lack of dose-responsive activity				CCCCCCCCCCCCCCCC(=O)N[C@H](C(=O)N[C@H](C(=O)N[C@@H](Cc1ccccc1)C(=O)N[C@@H](CCCNC(=N)N)C(=O)N[C@@H](CO)C(=O)N[C@@H](CO)C(=O)N[C@@H](CCC(=O)O)C(=O)N[C@H](CCCCN)C(=O)N[C@@H](CCCNC(=N)N)C(=O)N[C@@H](CCCNC(=N)N)C(=O)N[C@@H](CO)C(=O)N[C@@H](C)C(=O)N[C@@H](CC(=O)O)C(=O)N[C@@H](CC(N)=O)C(=O)N[C@@H](Cc1ccccc1)C(=O)N[C@H](C(N)=O)[C@@H](C)CC)C(C)C)[C@@H](C)O [Compound 18] (HELM PEPTIDE1{[CCCCCCCCCCCCCCCC(=O)[*:2]].T.V.F.R.S.S.E.[dK].R.R.S.A.D.N.F.I.[am]}$$$$V2.0)			**** (EC50≦25 nM (hAPJ), % IA≧80% and either % histamine>35% or formal (+) charge>1)				
≥ 80	105	≤ 25	11	inhibited			73	59.6	CCCCCCCCCCCCCCCC(=O)N[C@H](C(=O)N[C@H](C(=O)N[C@@H](Cc1ccccc1)C(=O)N[C@@H](CCCNC(=N)N)C(=O)N[C@@H](CO)C(=O)N[C@@H](CO)C(=O)N1CCC[C@H]1C(=O)N[C@@H](CCC(=O)O)C(=O)N[C@H](CCCCN)C(=O)N[C@@H](CCCNC(=N)N)C(=O)N[C@@H](CCCNC(=N)N)C(=O)N[C@@H](CO)C(=O)N[C@@H](C)C(=O)N[C@@H](CC(=O)O)C(=O)N[C@H](C(=O)N[C@@H](Cc1ccccc1)C(=O)N1CCC[C@H]1C(N)=O)[C@@H](C)CC)C(C)C)[C@@H](C)O [Compound 26] (HELM PEPTIDE1{[CCCCCCCCCCCCCCCC(=O)[*:2]].T.V.F.R.S.S.P.E.[dK].R.R.S.A.D.I.F.P.[am]}$$$$V2.0)			**** (EC50≦25 nM (hAPJ), % IA≧80% and either % histamine>35% or formal (+) charge>1)			weakly engaged	46
≥ 80	99	≤ 25	17		lack of dose-responsive activity	34.7			CCCCCCCCCCCCCCCC(=O)N[C@H](C(=O)N[C@H](C(=O)N[C@@H](Cc1ccccc1)C(=O)N[C@@H](CCCNC(=N)N)C(=O)N[C@@H](CO)C(=O)N[C@@H](CO)C(=O)N[C@@H](CCC(=O)O)C(=O)N1CCC[C@H]1C(=O)N[C@H](CCCCN)C(=O)N[C@@H](CCCNC(=N)N)C(=O)N[C@@H](CCCNC(=N)N)C(=O)N[C@@H](CO)C(=O)N[C@@H](C)C(=O)N[C@@H](CC(=O)O)C(=O)N[C@H](C(=O)N[C@@H](Cc1ccccc1)C(=O)N1CCC[C@H]1C(N)=O)[C@@H](C)CC)C(C)C)[C@@H](C)O [Compound 28] (HELM PEPTIDE1{[CCCCCCCCCCCCCCCC(=O)[*:2]].T.V.F.R.S.S.E.P.[dK].R.R.S.A.D.I.F.P.[am]}$$$$V2.0)			**** (EC50≦25 nM (hAPJ), % IA≧80% and either % histamine>35% or formal (+) charge>1)				
